Assay [1] concerns the target T1, CFTR (Homo sapiens, UniProt P13569, DEL508-508).
T1 construct: endogenous in cells; host or cells: primary human bronchial epithelial cells from CF subjects (F508del/MF-HBE), differentiated at air-liquid interface
The experiment in a line: HBE2 assay: Ussing chamber assay of CFTR-mediated short-circuit currents. In kind it is cell-based. The settings on record: F508del/MF-HBE cells, with 44 nM potentiator, 18-24 hours, 20% human serum; for Emax: read-out: HBE2 Max activity (%). The protocol:
Ussing Chamber Assay of CFTR-Mediated Short-Circuit Currents
After four days the apical media was removed, and the cells were grown at an air liquid interface for >14 days prior to use.
To isolate the CFTR-mediated short-circuit (ISC) current, F508del/MF-HBE grown on Costar® Snapwell™ cell culture inserts were mounted in an Ussing chamber and the transepithelial ISC was measured under voltage-clamp recording conditions (Vhold=0 mV) at 37° C. […] The CFTR-mediated ISC (μA/cm^2) for each condition was determined from the peak forskolin response to the steady-state current following inhibition.
Identification of Corrector Compounds
The activity of the CFTR corrector compounds on the CFTR-mediated ISC was determined in Ussing chamber studies as described above.

Assay [2] concerns the target T1, CFTR. In words: HBE assay: Ussing chamber assay of CFTR-mediated short-circuit currents. It counts as cell-based. The following applies: read-out: HBE Activity at 10 μM (%). A digest of the protocol: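 CFTR-mediated Isc (μA/cm²) equals the peak response to apical 20 μM forskolin minus the residual after a 20 μM each BPO/GlyH-101/CFTR inhibitor 172 cocktail, recorded in Ussing chambers at Vhold 0 mV, 37 °C, pH 7.4, with 30 μM apical amiloride. Cells were F508del/MF HBE cultures preincubated 18-24 h with corrector (concentration range or 10 μM) plus 1 μM ivacaftor in 20% human serum.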

The structures appear in SMILES notation. pEC50: −log10 of the molar value. Read-outs that look alike come from different tables or passages of the source. Bounds are passed on as bounds.

T1 sequence (P13569 with tags, fused parts or gaps DEL508-508): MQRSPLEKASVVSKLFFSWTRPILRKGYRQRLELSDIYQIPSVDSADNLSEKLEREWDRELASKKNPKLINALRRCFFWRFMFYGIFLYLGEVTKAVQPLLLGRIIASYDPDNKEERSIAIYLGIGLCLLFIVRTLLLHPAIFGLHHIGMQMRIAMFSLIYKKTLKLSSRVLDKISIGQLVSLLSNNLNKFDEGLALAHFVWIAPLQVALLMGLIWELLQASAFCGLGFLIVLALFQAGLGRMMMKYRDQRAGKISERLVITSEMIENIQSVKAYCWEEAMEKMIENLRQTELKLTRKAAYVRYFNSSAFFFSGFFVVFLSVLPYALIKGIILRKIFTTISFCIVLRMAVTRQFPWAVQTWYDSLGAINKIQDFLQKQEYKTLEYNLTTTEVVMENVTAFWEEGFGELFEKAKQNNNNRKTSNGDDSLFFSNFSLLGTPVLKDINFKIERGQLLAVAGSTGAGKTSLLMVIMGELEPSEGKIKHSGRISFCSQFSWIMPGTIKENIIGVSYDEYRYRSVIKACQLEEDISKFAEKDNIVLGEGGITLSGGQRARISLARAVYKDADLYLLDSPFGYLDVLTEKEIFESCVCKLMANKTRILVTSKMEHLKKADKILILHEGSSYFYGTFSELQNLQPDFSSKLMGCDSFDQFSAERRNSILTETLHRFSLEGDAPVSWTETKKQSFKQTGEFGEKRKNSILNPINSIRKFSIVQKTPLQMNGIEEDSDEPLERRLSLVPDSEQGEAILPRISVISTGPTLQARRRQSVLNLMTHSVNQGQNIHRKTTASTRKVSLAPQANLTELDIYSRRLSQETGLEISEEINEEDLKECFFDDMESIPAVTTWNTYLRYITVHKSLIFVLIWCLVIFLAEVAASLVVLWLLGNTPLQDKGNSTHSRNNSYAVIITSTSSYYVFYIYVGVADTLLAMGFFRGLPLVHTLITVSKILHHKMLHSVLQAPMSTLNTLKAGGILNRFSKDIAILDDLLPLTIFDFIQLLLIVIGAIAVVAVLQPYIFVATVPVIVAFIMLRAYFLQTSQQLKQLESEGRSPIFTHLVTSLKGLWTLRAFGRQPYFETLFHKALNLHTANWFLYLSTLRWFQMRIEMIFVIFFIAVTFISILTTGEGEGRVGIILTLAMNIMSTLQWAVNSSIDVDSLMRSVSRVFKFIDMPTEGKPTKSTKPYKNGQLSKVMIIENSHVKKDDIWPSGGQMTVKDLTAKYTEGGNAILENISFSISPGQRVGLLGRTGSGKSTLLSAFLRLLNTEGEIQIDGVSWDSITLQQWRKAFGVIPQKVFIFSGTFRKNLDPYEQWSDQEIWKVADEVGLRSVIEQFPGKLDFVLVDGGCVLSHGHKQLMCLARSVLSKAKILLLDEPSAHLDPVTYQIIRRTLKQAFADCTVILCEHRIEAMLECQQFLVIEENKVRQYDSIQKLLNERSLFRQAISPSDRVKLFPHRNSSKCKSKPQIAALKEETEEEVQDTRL

Take `Cc1cccc(C)c1-c1cc2nc(n1)NS(=N)(=O)c1cccc(c1)C(=O)N(Cc1ncc(N3CC(C)(C)C3)cn1)[C@H](CC(C)(C)C)CO2` (single isomer, unassigned) [Compound 1312]: the “HBE2 Activity at 3 μM (%)” value on CFTR [1] is “++ (++ is 30-60%)”.
As to `Cc1cccc(C)c1-c1cc2nc(n1)NS(=N)(=O)c1cccc(c1)C(=O)N(Cc1ncc(N3CC(C)(C)C3)cn1)[C@H](CC(C)(C)C)CO2` (single isomer, unassigned) [Compound 1313], on CFTR [1], the “HBE2 Activity at 3 μM (%)” value is listed as “+++ (+++ is >60+)”.
Still for that read-out and setting: the entry for `Cc1cccc(C)c1-c1cc2nc(n1)NS(=O)(=O)c1cccc(c1)C(=O)N(Cc1cncc(N3CC[C@@H]4CC[C@@H]43)n1)[C@H](CC(C)(C)C)CO2` (single isomer, unassigned) [Compound 1314] is “+++ (+++ is >60+)”.
As to `Cc1cccc(C)c1-c1cc2nc(n1)NS(=O)(=O)c1cccc(c1)C(=O)N(Cc1cncc(N3CCC[C@H]4CC[C@H]43)n1)[C@H](CC(C)(C)C)CO2` (single isomer, unassigned) [Compound 1315], on CFTR [1], the “HBE2 Activity at 3 μM (%)” value was “+++ (+++ is >60+)”; the pEC50 (in general, the EC50 on a negative log10 scale, so that one unit is a factor of ten) was greater than 6.00; the Emax is greater than 60%.
`Cc1cccc(C)c1-c1cc2nc(n1)NS(=O)(=O)c1cccc(c1)C(=O)N(Cc1cncc(N3CCC[C@H]4CC[C@H]43)n1)[C@H](CC(C)(C)C)CO2` (single isomer, unassigned) [Compound 1316]: the “HBE2 Activity at 3 μM (%)” value on CFTR [1] was “+++ (+++ is >60+)”.
Turning to `Cc1cccc(C)c1-c1cc2nc(n1)NS(=O)(=O)c1cccc(c1)C(=O)N(Cc1cncc(N(C)C3CCC3)n1)[C@H](C1CC3(CCC3)C1)CO2` (single isomer, unassigned) [Compound 1320, 12-[[6-[Cyclobutyl(methyl)amino]pyrazin-2-yl]methyl]-6-(2,6-dimethylphenyl)-2,2-dioxo-11-spiro[3.3]heptan-2-yl-9-oxa-2λ^6-thia-3,5,12,19-tetrazatricyclo[12.3.1.14,8]nonadeca-1(18),4(19),5,7,14,16-hexaen-13-one], at CFTR [1], the “HBE2 Activity at 3 μM (%)” value is “+++ (+++ is >60+)”, the pEC50 was greater than 6.00 and the Emax is greater than 60%.
On to `Cc1cccc(C)c1-c1cc2nc(n1)NS(=O)(=O)c1cccc(c1)C(=O)N(Cc1cncc(N(C)C3CCC3)n1)[C@H](C1CC3(CCC3)C1)CO2` (single isomer, unassigned) [Compound 1321, 12-[[6-[cyclobutyl(methyl)amino]pyrazin-2-yl]methyl]-6-(2,6-dimethylphenyl)-2,2-dioxo-11-spiro[3.3]heptan-2-yl-9-oxa-2λ^6-thia-3,5,12,19-tetrazatricyclo[12.3.1.14,8]nonadeca-1(18),4(19),5,7,14,16-hexaen-13-one], for which the “HBE2 Activity at 3 μM (%)” value on CFTR [1] is “++ (++ is 30-60%)”.
As for `Cc1cccc(C)c1-c1cc2nc(n1)NS(=O)(=O)c1cccc(c1)C(=O)N(Cc1cncc(N3CCC[C@@H]3C3CCOCC3)n1)[C@H](CC(C)(C)C)CO2` [Compound 1534], the activation at 10 µM at CFTR [2] (HBE assay, 10 μM) is greater than 60%.
`COC[C@H]1CCCCN1c1cncc(CN2C(=O)c3cccc(c3)S(=O)(=O)Nc3nc(cc(-c4c(C)cccc4C)n3)OC[C@H]2CC(C)(C)C)n1` [Compound 1538]: the activation at 10 µM at CFTR [2] is greater than 60%.
With `Cc1cccc(C)c1-c1cc2nc(n1)NS(=O)(=O)c1cccc(c1)C(=O)N(Cc1cncc(N3CC[C@@H]4COC[C@@H]43)n1)[C@H](CC(C)(C)C)CO2` [Compound 1540], the activation at 10 µM on CFTR [2] (HBE assay, 10 μM) was greater than 60%.
Same read-out and setting: as for `Cc1cccc(C)c1-c1cc2nc(n1)NS(=O)(=O)c1cccc(c1)C(=O)N(Cc1cncc(N3CC[C@@H]4CCC[C@@H]43)n1)[C@H](CC(C)(C)C)CO2` [Compound 1542], the figure is greater than 60%.

The values above are taken from patent publication US20240150377A1, “MODULATORS OF CYSTIC FIBROSIS TRANSMEMBRANE CONDUCTANCE REGULATOR” (VERTEX PHARMACEUTICALS INCORPORATED, priority 2020, published 2024).
